Measurements reported in patent US20200055839A1 (priority 2017, published 2020).

What follows are compounds tested on NL-RLuc virus (assay: Inhibition of HIV replication (NL-RLuc virus, luciferase readout in MT-2 cells)). Conditions: Human immunodeficiency virus 1, MT2, 120 h, MT-2 cells infected with NL-RLuc virus, 5 days of incubation, 10% FBS, at least 2 experiments.
Type: cell-based
How it was run: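 MT-2 cells infected with NL4-3-derived virus carrying Renilla luciferase in place of part of nef, grown 5 days with serial compound dilutions in RPMI 1640/10% FBS. Virus growth read as luciferase expression. EC50 from median effect equation, at least 2 experiments.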

Q: How did the EC50 turn out when `Cc1ncc(-c2ccccc2C(N)=O)c(N2CCC(C)(C)CC2)c1[C@H](OC(C)(C)C)C(=O)O` [Example 154, (2S)-2-(tert-butoxy)-2-[5-(2-carbamoylphenyl)-4-(4,4-dimethylpiperidin-1-yl)-2-methylpyridin-3-yl]acetic acid] was run?
A: The EC50 was 52 nM.

Q: With `Cc1ncc(-c2ccc(C(F)(F)CC(C)C)nc2)c(N2CCC(C)(C)CC2)c1[C@H](OC(C)(C)C)C(=O)O` [Example 430, (S)-2-tert-Butoxy-2-(6′-(1,1-difluoro-3-methylbutyl)-4-(4,4-dimethylpiperidin-1-yl)-6-methyl-3, 3′-bipyridin-5-yl)acetic acid] as the compound, how does the EC50 read?
A: Its EC50 is 16 nM.

Q: With `Cc1ncc(-c2cc(F)c(OCCc3ccc(F)cc3)cc2F)c(N2CCC(C)(C)CC2)c1[C@H](OC(C)(C)C)C(=O)O` [Example 125, (2S)-2-(tert-Butoxy)-2-(5-{2,5-difluoro-4-[2-(4-fluorophenyl)ethoxy]phenyl}-4-(4,4-dimethylpiperidin-1-yl)-2-methylpyridin-3-yl)acetic acid] as the compound, how does the EC50 read?
A: Its EC50 is 3 nM.

Q: For `Cc1ccc(CCOc2ccc(-c3cnc(C)c([C@H](OC(C)(C)C)C(=O)O)c3N3CCC(C)(C)CC3)nc2)cc1` [Example 300, (2S)-2-(tert-butoxy)-2-[4′-(4,4-dimethylpiperidin-1-yl)-6′-methyl-5-[2-(4-methylphenyl)ethoxy]-[2,3′-bipyridine]-5′-yl]acetic acid], which EC50 is on record?
A: The EC50 was 1 nM.

Q: With `Cc1ncc(-c2ccc([C@H](O)CC(C)C)nc2)c(N2CCC(C)(C)CC2)c1[C@H](OC(C)(C)C)C(=O)O` [Example 433, (S)-2-tert-butoxy-2-(4-(4,4-dimethylpiperidin-1-yl)-6′-((R)-1-hydroxy-3-methylbutyl)-6-methyl-3,3′-bipyridin-5-yl)acetic acid] as the compound, how does the EC50 read?
A: The EC50 was 25 nM.

Q: With `COc1ccc(COc2ccc(-c3cnc(C)c([C@H](OC(C)(C)C)C(=O)O)c3N3CCC(C)(C)CC3)nc2)cc1` [Example 339, (2S)-2-(tert-butoxy)-2-[4′-(4,4-dimethylpiperidin-1-yl)-5-[(4-methoxyphenyl)methoxy]-6′-methyl-[2,3′-bipyridine]-5′-yl]acetic acid] as the compound, how does the EC50 read?
A: Its EC50 is 2 nM.

Q: `Cc1ccc(Nc2nc(C)c([C@H](OC(C)(C)C)C(=O)O)c(N3CCC(C)(C)CC3)c2-c2ccc(OCCc3ccc(F)cc3)cc2)nc1` [Example 78, (S)-2-(tert-Butoxy)-2-(4-(4,4-dimethylpiperidin-1-yl)-5-(4-(4-fluorophenethoxy)phenyl)-2-methyl-6-((5-methylpyridin-2-yl)amino)pyridin-3-yl)acetic acid] was tested. Which EC50 did it give?
A: The EC50 was 6 nM.

Q: Which EC50 does the source give for `Cc1nc(NCCc2c[nH]cn2)c(-c2ccc(OCCc3ccc(F)cc3)cc2)c(N2CCC(C)(C)CC2)c1[C@H](OC(C)(C)C)C(=O)O` [Example 32, (S)-2-(6-((2-(H-Imidazol-4-yl)ethyl)amino)-4-(4,4-dimethylpiperidin-1-yl)-5-(4-(4-fluorophenethoxy)phenyl)-2-methylpyridin-3-yl)-2-(tert-butoxy)acetic acid] here?
A: The EC50 was 5 nM.

Q: How did the EC50 turn out when `Cc1ncc(-c2cnc(OCCc3cccc(Cl)c3)c(F)c2)c(N2CCC(C)(C)CC2)c1[C@H](OC(C)(C)C)C(=O)O` [Example 371, (2S)-2-(tert-butoxy)-2-{6′-[2-(3-chlorophenyl)ethoxy]-4-(4,4-dimethylpiperidin-1-yl)-5′-fluoro-6-methyl-[3,3′-bipyridine]-5-yl}acetic acid] was run?
A: The EC50 was 1 nM.

Q: Which EC50 does the source give for `Cc1ncc(-c2ccc(OCCc3ccc(F)cc3)nn2)c(N2CCC(C)(C)CC2)c1[C@H](OC(C)(C)C)C(=O)O` [Example 17, (S)-2-(tert-Butoxy)-2-(4-(4,4-dimethylpiperidin-1-yl)-5-(6-(4-fluorophenethoxy)pyridazin-3-yl)-2-methylpyridin-3-yl)acetic acid] here?
A: Its EC50 is 85 nM.

Q: `Cc1ncc(-c2ccc(OCCCC(C)(C)C)cn2)c(N2CCC(C)(C)CC2)c1[C@H](OC(C)(C)C)C(=O)O` [Example 351, (2S)-2-(tert-butoxy)-2-{5-[(4,4-dimethylpentyl)oxy]-4′-(4,4-dimethylpiperidin-1-yl)-6′-methyl-[2,3′-bipyridine]-5′-yl}acetic acid] was tested. Which EC50 did it give?
A: The EC50 was 0.8 nM.
